Among the data in PubChem BioAssay (NCI) are TGI and GI50 values, retold here.

Among the test systems are SNB-75 CNS; MDA-MB-231 breast; EKVX NSCLC; MCF7 breast; HT29 colon; OVCAR-8 ovarian; MALME-3M melanoma; ACHN renal; HS 578T breast; SF-539 CNS.
What all share (assay): growth of human tumour cells (NCI), 48 h

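Growth conditions: 96-well plates. Treatment: test compound, 48 hours, 5 concentrations. Analysis: linear interpolation between bracketing concentrations; unreached endpoints set to highest concentration. GI50: concentration for 50% inhibition of growth. TGI denotes the concentration required for complete inhibition of growth.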 Where a SMILES comes first, the peptide text is derived from it. [ ]: non-standard residue; d: D form. Phe(F5) = N[CH](Cc1c(F)c(F)c(F)c(F)c1F)C(=O)O

Turning to `COC(=O)C(CC(C)C)NC(=O)C(Cc1cnc[nH]1)NC(=O)CNC(=O)C(NC(=O)C(C)NC(=O)C(Cc1c[nH]c2ccccc12)NC(=O)C(CCC(=O)O)NC(=O)C(N)Cc1c(F)c(F)c(F)c(F)c1F)C(C)C` (stereo not given) (H-[Phe(F5)]EWAVGHL-OMe; configuration not given here), the TGI in the test on SNB-75 CNS was greater than 100 µM; in the test on MDA-MB-231 breast it was greater than 12.5 µM; in the test with EKVX NSCLC it was greater than 100 µM; in the test on MCF7 breast it was greater than 12.5 µM; in the test on HT29 colon, greater than 100 µM; with OVCAR-8 ovarian, greater than 100 µM. The TGI is greater than 12.5 µM in the test with MALME-3M melanoma, greater than 100 µM with ACHN renal, greater than 12.5 µM in the test with HS 578T breast and greater than 100 µM with SF-539 CNS. The GI50 with EKVX NSCLC, in the test with HT29 colon, in the test with OVCAR-8 ovarian, in the test on ACHN renal and in the test on SF-539 CNS was greater than 100 µM throughout.

Turning to `CCc1ccc(NC(=O)Nc2c[nH]c3ccccc23)cc1`, the GI50 with SNB-75 CNS is 1.01 µM; in the test on MDA-MB-231 breast, 3.2 µM; with EKVX NSCLC, 9.2 µM; in the test on MCF7 breast, 29.3 µM; in the test on HT29 colon it was greater than 43.5 µM; in the test on OVCAR-8 ovarian it was 13.9 µM. In addition, the GI50 was 8 µM in the test on MALME-3M melanoma, 23.2 µM with ACHN renal, 10.4 µM in the test with HS 578T breast and 3.09 µM in the test on SF-539 CNS. The TGI in the test with SNB-75 CNS is greater than 26.5 µM; in the test on MDA-MB-231 breast, greater than 36.9 µM; in the test with EKVX NSCLC, greater than 55 µM; in the test on MCF7 breast, greater than 65.5 µM; in the test with HT29 colon, greater than 61.2 µM; in the test on OVCAR-8 ovarian, greater than 47.5 µM. Also, the TGI is greater than 49.4 µM with MALME-3M melanoma, greater than 84.3 µM in the test on ACHN renal, greater than 67.8 µM with HS 578T breast and greater than 40.6 µM in the test on SF-539 CNS.

In the case of `CSc1nnc(CCSc2ccnc3c(C(F)(F)F)cccc23)o1`, the GI50 was 19.6 µM in the test on SNB-75 CNS; greater than 100 µM in the test with MDA-MB-231 breast; 9.21 µM with EKVX NSCLC; greater than 100 µM in the test on MCF7 breast; greater than 100 µM in the test with HT29 colon; greater than 100 µM with OVCAR-8 ovarian. Moreover, the GI50 in the test with MALME-3M melanoma was greater than 100 µM; in the test with ACHN renal it was greater than 100 µM; in the test with HS 578T breast, 18 µM; in the test with SF-539 CNS it was 60.6 µM. Moreover, the TGI in the test on SNB-75 CNS, in the test with MDA-MB-231 breast, with EKVX NSCLC, in the test with MCF7 breast, with HT29 colon and with OVCAR-8 ovarian was greater than 100 µM each time. Besides, the TGI in the test on MALME-3M melanoma is greater than 100 µM; in the test on ACHN renal it was greater than 100 µM; in the test on HS 578T breast, 73.2 µM; in the test on SF-539 CNS, greater than 100 µM.

Take `O=C(O)CS(=O)(=O)C(c1ccccc1)c1ccccc1`: the TGI in the test on SNB-75 CNS, in the test with MDA-MB-231 breast, in the test on EKVX NSCLC, with MCF7 breast, in the test with HT29 colon and with OVCAR-8 ovarian was greater than 100 µM throughout. Further, the TGI with MALME-3M melanoma, in the test with ACHN renal, in the test on HS 578T breast and in the test with SF-539 CNS was greater than 100 µM each time.

As for `c1ccc2nc(Cn3c[n+](Cc4ccc5ccccc5n4)c4ccccc43)ccc2c1`, the GI50 is 2.09 µM in the test on SNB-75 CNS; 1.59 µM in the test with MDA-MB-231 breast; 5.7 µM in the test on EKVX NSCLC; 1.91 µM in the test on MCF7 breast; 1.48 µM with HT29 colon; 3.13 µM in the test with OVCAR-8 ovarian. The GI50 in the test on MALME-3M melanoma was 1.26 µM; in the test with ACHN renal, 14.6 µM; with HS 578T breast it was 3.19 µM; in the test on SF-539 CNS it was 2.61 µM. Also, the TGI was determined as 9.13 µM in the test on SNB-75 CNS; 4.46 µM with MDA-MB-231 breast; 23.7 µM with EKVX NSCLC; 11.5 µM with MCF7 breast; 9.87 µM with HT29 colon; 11.3 µM in the test on OVCAR-8 ovarian. Moreover, the TGI was determined as 4.7 µM in the test with MALME-3M melanoma, 31.1 µM with ACHN renal, 18.8 µM in the test with HS 578T breast and 12 µM with SF-539 CNS.

As for `CCn1c(-c2nonc2N)nc2cncc(C(=O)N3CCNCC3)c21`, the GI50 in the test on SNB-75 CNS, in the test on MDA-MB-231 breast, in the test on EKVX NSCLC, with MCF7 breast, in the test on HT29 colon and in the test on OVCAR-8 ovarian was greater than 25 µM in each case. Besides, the GI50 with MALME-3M melanoma, in the test with ACHN renal, with HS 578T breast and in the test with SF-539 CNS was greater than 25 µM each time. In addition, the TGI in the test on SNB-75 CNS, with MDA-MB-231 breast, with EKVX NSCLC, with MCF7 breast, in the test on HT29 colon and in the test on OVCAR-8 ovarian was greater than 25 µM each time. The TGI with MALME-3M melanoma, in the test on ACHN renal, in the test on HS 578T breast and in the test on SF-539 CNS was greater than 25 µM throughout.

Turning to `CCc1c(C)[nH]c(/C=C2\N=C(c3ccc[nH]3)C=C2OC)c1C`, the GI50 was 0.269 µM in the test on SNB-75 CNS; 0.128 µM in the test on MDA-MB-231 breast; 0.707 µM in the test on EKVX NSCLC; 0.4 µM with MCF7 breast; less than 0.0376 µM with HT29 colon; 0.232 µM with OVCAR-8 ovarian. The GI50 was 0.474 µM in the test with MALME-3M melanoma, 0.316 µM in the test on ACHN renal, 0.164 µM with HS 578T breast and 0.448 µM in the test with SF-539 CNS. The TGI in the test on SNB-75 CNS is 0.71 µM; in the test on MDA-MB-231 breast it was 3.16 µM; in the test with EKVX NSCLC it was 9.93 µM; with MCF7 breast it was 6.93 µM; in the test with HT29 colon, 2.29 µM; in the test on OVCAR-8 ovarian it was greater than 24.1 µM. Moreover, the TGI stood at 2.05 µM with MALME-3M melanoma, 2.19 µM in the test on ACHN renal, 2.3 µM in the test with HS 578T breast and 2.16 µM in the test on SF-539 CNS.

In the case of `Cc1cc(N2CCCCC2)nc(N(CCNc2ccnc3cc(Cl)ccc23)Cc2ccco2)n1`, the GI50 is 1.88 µM with SNB-75 CNS; 1.83 µM with MDA-MB-231 breast; 2.09 µM in the test with EKVX NSCLC; 1.59 µM in the test with MCF7 breast; 1.05 µM in the test on HT29 colon; 1.85 µM in the test with OVCAR-8 ovarian. The GI50 was 1.98 µM in the test on MALME-3M melanoma, 2.72 µM in the test with ACHN renal, 2.34 µM with HS 578T breast and 2.05 µM in the test with SF-539 CNS. Besides, the TGI in the test with SNB-75 CNS is 4.33 µM; with MDA-MB-231 breast, 3.53 µM; in the test with EKVX NSCLC, 6.07 µM; with MCF7 breast, 3.19 µM; in the test with HT29 colon, 2.84 µM; in the test on OVCAR-8 ovarian it was 3.68 µM. Further, the TGI in the test with MALME-3M melanoma stood at 3.65 µM; in the test with ACHN renal, 8.06 µM; with HS 578T breast it was 5.52 µM; with SF-539 CNS, 4.2 µM.
